Laboratory results from PubChem BioAssay AID1963875 (Molecular Pharmacology Branch, DTP, NCI, 2024).
pIC50: −log10 of the molar value.

Test system: KRAS-mutant PDC complex spheroid viability
Assay: Anticancer human tumor 186277-243-T-J2-PDC patient-derived colon adenocarcinoma cell line growth inhibition [KRAS2]
Conditions: for pIC50: curve of first compound; for viability, T/C: stronger effect = lower value
From the text: Multicellular complex tumor spheroid response to RAS pathway inhibitors in combination with a targeted agents in patient-derived cell lines with oncogenic KRAS variants from multiple cancer types
A high-throughput screen of multi-cell type tumor spheroids was designed to identify active combinations of targeted small molecules and KRAS pathway inhibitors. Complex spheroids include a stromal component modeled by human endothelial cells (HUVEC) and fibroblasts modeled by human mesenchymal stem cells (MSCs). The concentration ranges selected for each drug and investigational agent were based upon clinically achievable concentrations if the clinical Cmax of the agent was known.
Compounds. The drugs and investigational agents: BI-3406 (NSC825286), BAY-293 (NSC824723), batoprotafib (TNO155; NSC825523), sotorasib (AMG 510; NSC818433), MRTX1257 (NSC819558), elimusertib (BAY 1895344; NSC800525), molibresib (GSK525762; NSC774829), temuterkib (LY3214996; NSC803410), venetoclax (NSC766270), alisertib (NSC759677), olaparib (NSC753686), talazoparib (NSC767125), erdafitinib (NSC781556), ipatasertib (NSC767898), cabozantinib (NSC761068), nintedanib (NSC756659), abemaciclib (NSC768073), docetaxel (NSC628503), trametinib (NSC758246), and sapanisertib (NSC764658) were obtained from the National Cancer Institute (NCI) Developmental Therapeutics Program Chemical Repository. The FDA-approved anticancer drug set is available from the Developmental Therapeutics Program. […] The stock solutions were prepared in dimethyl sulfoxide (DMSO, Sigma-Aldrich, St. Louis, MO, cat. D2650) at 800-fold the tested concentration and stored at -70 degrees C prior to their use. All drugs and investigational agents were tested over a range starting from a high concentration at or near the clinical Cmax and decreasing in half-log increments. If the clinical Cmax for an agent had not been determined, the highest concentration tested was 10 microM.
Cell Culture. All cells were maintained in an incubator at 37 degrees C and 5% CO2 with 95% humidity. The PDC lines were cultured according to standard operating procedures established by the NCI PDMR (https://pdmr.cancer.gov/sops/default.htm). Briefly, all PDCs were thawed and cultured in Matrigel-coated flasks prepared with a working solution of 1X Ham's F-12 nutrient mix, without supplementation (Invitrogen, Waltham, MA, cat. 11765054), 100 U/mL penicillin-streptomycin (Invitrogen, cat. 15140122), and 2.5% Matrigel (Corning Inc., Corning, NY, cat. 354248) for the first three passages. All PDCs were cultured in complete DMEM/F-12 media containing advanced DMEM/F-12 (Invitrogen, cat. 12634028), 4.9% defined fetal bovine serum, heat inactivated (HyClone Laboratories Inc., Logan, UT, cat. SH30070.03HI), 389 ng/mL hydrocortisone (Sigma-Aldrich, cat. H4001), 9.7 ng/mL human EGF recombinant protein (Invitrogen, cat. PHG0313), 23.4 microg/mL adenine (Sigma-Aldrich, cat. A2786), 97.3 U/mL penicillin-streptomycin (Invitrogen, cat. 15140122), 1.9 mM L-glutamine (Invitrogen, cat. 25030081), and 9.7 microM Y-27632 dihydrochloride (Tocris Bioscience, Bristol, United Kingdom, cat. 1254). The PDCs were cultured in complete DMEM/F12 media without 9.7 microM Y-27632 dihydrochloride for at least two passages prior to the screen. The established cell line HOP-62 was cultured in RPMI 1640 medium, HEPES (Invitrogen, cat. 22400105) with 10% defined fetal bovine serum (HyClone Laboratories Inc., cat. SH30070.03) and 2 mM L-glutamine (Invitrogen, cat. 25030081). The pooled donor HUVEC were cultured in endothelial cell growth medium 2 (PromoCell, Heidelberg, Germany, cat. C-22011) and the hMSC were cultured in mesenchymal stem cell growth medium 2 (PromoCell, cat. C-28009). For all experiments, HUVEC and hMSC were used at passages </=5, while the malignant cell lines were used at passages </=15. […]

[1] = second compound 0.1 µM, first compound 0.0316 µM
[2] = second compound 0.1 µM, first compound 0.1 µM
[3] = second compound 0.1 µM, first compound 0.316 µM
[4] = second compound 0.1 µM, first compound 1 µM
[5] = second compound 0.1 µM, first compound 3.16 µM
[6] = second compound 0.1 µM, first compound 10 µM
[7] = second compound 0.316 µM, first compound 0.0316 µM
[8] = second compound 0.316 µM, first compound 0.1 µM
[9] = second compound 0.316 µM, first compound 0.316 µM
[10] = second compound 0.316 µM, first compound 1 µM
[11] = second compound 0.316 µM, first compound 3.16 µM
[12] = second compound 0.316 µM, first compound 10 µM
[13] = second compound 1 µM, first compound 0.0316 µM
[14] = second compound 1 µM, first compound 0.1 µM
[15] = second compound 1 µM, first compound 0.316 µM
[16] = second compound 1 µM, first compound 1 µM
[17] = second compound 1 µM, first compound 3.16 µM
[18] = second compound 1 µM, first compound 10 µM
[19] = second compound 3.16 µM, first compound 0.0316 µM
[20] = second compound 3.16 µM, first compound 0.1 µM
[21] = second compound 3.16 µM, first compound 0.316 µM
[22] = second compound 3.16 µM, first compound 1 µM
[23] = second compound 3.16 µM, first compound 3.16 µM
[24] = second compound 3.16 µM, first compound 10 µM
[25] = second compound 10 µM, first compound 0.0316 µM
[26] = second compound 10 µM, first compound 0.1 µM
[27] = second compound 10 µM, first compound 0.316 µM
[28] = second compound 10 µM, first compound 1 µM
[29] = second compound 10 µM, first compound 3.16 µM
[30] = second compound 10 µM, first compound 10 µM
[31] = second compound 0.1 µM, first compound 0.00316 µM
[32] = second compound 0.1 µM, first compound 0.01 µM
[33] = second compound 0.316 µM, first compound 0.00316 µM
[34] = second compound 0.316 µM, first compound 0.01 µM
[35] = second compound 1 µM, first compound 0.00316 µM
[36] = second compound 1 µM, first compound 0.01 µM
[37] = second compound 3.16 µM, first compound 0.01 µM
[38] = second compound 10 µM, first compound 0.00316 µM
[39] = second compound 10 µM, first compound 0.01 µM
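Wherever viability, T/C is given: viability read after seven days of compound exposure; 100% = DMSO vehicle-treated spheroids so lower means less viable.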

SMILES	pIC50 (second compound 0.1 µM)	pIC50 (second compound 0.316 µM)	pIC50 (second compound 1 µM)	pIC50 (second compound 3.16 µM)	pIC50 (second compound 10 µM)	viability, T/C [1]	viability, T/C [2]	viability, T/C [3]	viability, T/C [4]	viability, T/C [7]	viability, T/C [8]	viability, T/C [9]	viability, T/C [10]	viability, T/C [13]	viability, T/C [14]	viability, T/C [15]	viability, T/C [16]	viability, T/C [19]	viability, T/C [20]	viability, T/C [25]	further results
CC(C)NCC(C(=O)N1CCN(c2ncnc3c2C(C)CC3O)CC1)c1ccc(Cl)cc1 (stereo not drawn) + C=CC(=O)N1CCN(c2nc(=O)n(-c3c(C)ccnc3C(C)C)c3nc(-c4c(O)cccc4F)c(F)cc23)C(C)C1	6.21	6.19	6.20	6.57	7.29	102%	99.5%	63.7%	37.5%	106%	93.6%	63.2%	41.1%	109%	103%	66.5%	36.7%	100%	85.1%	70.3%	viability, T/C [5]: 27.9%; viability, T/C [6]: 13.4%; viability, T/C [11]: 23.9%; viability, T/C [12]: 11.8%; viability, T/C [17]: 26.3%; viability, T/C [18]: 10.6%; viability, T/C [21]: 40.9%; viability, T/C [22]: 25.7%; viability, T/C [23]: 14.3%; viability, T/C [24]: 8.27%; viability, T/C [26]: 20.1%; viability, T/C [27]: 15.9%; viability, T/C [28]: 8.02%; viability, T/C [29]: 6.56%; viability, T/C [30]: 2.87%
CC1(C)CCC(CN2CCN(c3ccc(C(=O)NS(=O)(=O)c4ccc(NCC5CCOCC5)c([N+](=O)[O-])c4)c(Oc4cnc5[nH]ccc5c4)c3)CC2)=C(c2ccc(Cl)cc2)C1 + C=CC(=O)N1CCN(c2nc(=O)n(-c3c(C)ccnc3C(C)C)c3nc(-c4c(O)cccc4F)c(F)cc23)C(C)C1	5.72	5.68	5.71	5.77	6.43	107%	89.6%	90.8%	108%	97.7%	104%	102%	98.5%	97.8%	97.9%	94.1%	106%	99.9%	110%	61.1%	viability, T/C [5]: 10.6%; viability, T/C [6]: 0.45%; viability, T/C [11]: 23.3%; viability, T/C [12]: 1.48%; viability, T/C [17]: 14.3%; viability, T/C [18]: 0.49%; viability, T/C [21]: 96.7%; viability, T/C [22]: 85%; viability, T/C [23]: 8.01%; viability, T/C [24]: 0.76%; viability, T/C [26]: 69.4%; viability, T/C [27]: 48.6%; viability, T/C [28]: 32%; viability, T/C [29]: 1.91%; viability, T/C [30]: 0.62%
CCN1CCN(Cc2ccc(Nc3ncc(F)c(-c4cc(F)c5nc(C)n(C(C)C)c5c4)n3)nc2)CC1 + C=CC(=O)N1CCN(c2nc(=O)n(-c3c(C)ccnc3C(C)C)c3nc(-c4c(O)cccc4F)c(F)cc23)C(C)C1	< 6.00	< 6.00	< 6.00	< 6.00	6.24	98.4%	129%	158%	96.6%	103%	117%	157%	105%	99.7%	113%	153%	99.7%	108%	139%	83.3%	viability, T/C [31]: 107%; viability, T/C [32]: 95%; viability, T/C [33]: 104%; viability, T/C [34]: 101%; viability, T/C [35]: 109%; viability, T/C [36]: 103%; viability, T/C (second compound 3.16 µM, first compound 0.00316 µM): 92.2%; viability, T/C [37]: 102%; viability, T/C [21]: 175%; viability, T/C [22]: 73%; viability, T/C [38]: 69.1%; viability, T/C [39]: 64.8%; viability, T/C [27]: 74.1%; viability, T/C [28]: 27.5%
Cn1ncnc1[C@H]1c2n[nH]c(=O)c3cc(F)cc(c23)N[C@@H]1c1ccc(F)cc1 + C=CC(=O)N1CCN(c2nc(=O)n(-c3c(C)ccnc3C(C)C)c3nc(-c4c(O)cccc4F)c(F)cc23)C(C)C1	< 7.00	< 7.00	< 7.00	< 7.00	8.48	95%	75.8%	–	–	87.8%	79%	–	–	85.2%	67.2%	–	–	61.6%	50.6%	32.9%	viability, T/C (second compound 0.1 µM, first compound 0.000316 µM): 98.5%; viability, T/C (second compound 0.1 µM, first compound 0.001 µM): 97.1%; viability, T/C [31]: 111%; viability, T/C [32]: 105%; viability, T/C (second compound 0.316 µM, first compound 0.000316 µM): 106%; viability, T/C (second compound 0.316 µM, first compound 0.001 µM): 114%; viability, T/C [33]: 105%; viability, T/C [34]: 103%; viability, T/C (second compound 1 µM, first compound 0.000316 µM): 106%; viability, T/C (second compound 1 µM, first compound 0.001 µM): 105%; viability, T/C [35]: 108%; viability, T/C [36]: 98.7%; viability, T/C (second compound 3.16 µM, first compound 0.000316 µM): 99.6%; viability, T/C (second compound 3.16 µM, first compound 0.001 µM): 101%; viability, T/C [37]: 76.5%; viability, T/C (second compound 10 µM, first compound 0.000316 µM): 45%; viability, T/C (second compound 10 µM, first compound 0.001 µM): 60.2%; viability, T/C [38]: 51%; viability, T/C [39]: 28.3%; viability, T/C [26]: 24.1%
